The assay relates to Plasmodium falciparum. The experiment in a line: GSK_TCMDC: Inhibition of Plasmodium falciparum 3D7 in whole erythrocytes, using parasite LDH activity as an index of growth. Type of assay: functional, organism-based. Particulars: Plasmodium falciparum, 3D7.
Take `O=[N+]([O-])c1ccccc1/C=N/Nc1ccnc2ccc(C(F)(F)F)cc12`: the XC50 turned out to be 0.71 µM.

`Cc1cc(N/N=C/c2cccc([N+](=O)[O-])c2)c2ccc(F)cc2n1`: the XC50 amounted to 0.69 µM.

The molecule `Cc1nc(O)c2c(ccc3ccc(CN(C)c4ccc(C(=O)N[C@@H](CCC(=O)O)C(=O)O)cc4)cc32)n1` registered an XC50 of 0.879 µM.

Consider `CCN(CC)CCN(Cc1ccc(-c2ccc(C(F)(F)F)cc2)cc1)C(=O)Cn1c(CCc2cccc(F)c2F)cc(=O)c(C)c1C`, for which the XC50 stood at 0.624 µM.

In turn, `O=C(O)c1ccc(-c2c[nH]c3ncc(-c4ccc(Cl)cc4)cc23)cc1` displayed an XC50 of 0.726 µM.

The molecule `CCc1ccccc1OCCCON1C(=N)N=C(N)NC1(C)C` returned an XC50 of 0.0032 µM.

In the case of `O=c1cc(NC[C@H]2CCC[C@@H]2NC2CCCc3c2[nH]c2ccccc32)[nH]c2ccccc12` (some centres undefined), the XC50 turned out to be 0.786 µM.

`CC(C)(C)c1ccc(OCC(=O)NC2CCN(c3ccnc4cc(Cl)ccc34)C2)cc1` (centres undefined) showed an XC50 of 0.135 µM.

Take `N=C(N)NC(=O)Nc1ccc(Cl)c(C(F)(F)F)c1`: the XC50 stood at 0.594 µM.

`COc1ccc(-c2nc3cccnc3n2CC(=O)Nc2c(C)cc(C)cc2C)c(OC)c1` showed an XC50 of 0.927 µM.

As to `COc1ccccc1C1CC(c2ccc(Br)cc2)=NN1C(=O)c1ccccc1` (centres undefined), the XC50 worked out at 1.11 µM.

In turn, `Cc1cc(C(=O)Nc2ccc3c(c2)CCN3C2CCN(Cc3cccc(F)c3F)C2)no1` (centres undefined) came in with an XC50 of 0.583 µM.

`COc1cc(C(=O)NC2CC(C)(C)NC(C)(C)C2)ccc1-c1cc2cc(Cl)c(Cl)cc2[nH]1` displayed an XC50 of 0.724 µM.

`CSc1ccc(CN2CCC(NC(=O)c3ccc(-c4cccc(Cl)c4)s3)CC2)cc1` showed an XC50 of 1.29 µM.

Turning to `Cn1nc(-c2ccccc2F)c2cc(C(=O)NC3CCN(Cc4ccccc4)CC3)sc21`, the XC50 amounted to 0.789 µM.

The molecule `O=S(=O)(Nc1cccc(CCN2CCCCC2CCN2CCCC2)c1)c1cccc2ccccc12` (centres undefined) registered an XC50 of 0.819 µM.

For the molecule `CC(=O)Nc1cccc(C(=O)Nc2cccc(-c3ccc(-c4nc5cc(C(F)(F)F)ccc5[nH]4)s3)c2)c1`, the XC50 stood at 0.652 µM.

Turning to `Cc1cccc2nc(-c3cccc(-c4ccc(CNCc5ccccc5)cc4)c3)[nH]c12`, the XC50 came to 0.148 µM.

As to `COc1cc(Cc2cnc(N)nc2N)cc(OCCCCc2nnn[nH]2)c1OC`, the XC50 was 0.286 µM.

`CCCCCCCCCC(=O)NCC1CC(Br)=NO1` (centres undefined) returned an XC50 of 1.05 µM.

`CCCCCCn1c2c(c(=N)c3c1CCC3)CCC2` registered an XC50 of 0.178 µM.

Molecule `C=CCOc1ccc(C2C(C(=O)OC)=C(C)NC3=C2C(=O)c2ccccc23)cc1OC` (centres undefined) displayed an XC50 of 0.877 µM.

Molecule `O=C(Nc1ccc(-c2cccc(-c3nc4cc(C(F)(F)F)ccc4[nH]3)c2)cc1)Nc1ccc(Cl)c(Cl)c1` returned an XC50 of 0.746 µM.

Take `CN(Cc1cccc(O)c1)C1CCN(c2cc(NC(=O)c3cccc(F)c3)ccn2)CC1`: the XC50 was found to be 0.847 µM.

With `CSc1nnc2n(Cc3ccccc3)c(=O)c3c(n12)-c1ccccc1CC31CCCCC1`, the XC50 worked out at 0.969 µM.

`COc1ccc(NC(=O)Nc2ccc(-c3ccc(-c4nc5ccccc5[nH]4)cc3)cc2)cc1` came in with an XC50 of 0.509 µM.

For `Cc1cc(NC(=O)NCCN2CCC(NS(=O)(=O)c3ccc(Br)cc3)C2)c2ccccc2n1` (centres undefined), the XC50 was found to be 0.602 µM.

Regarding `CCCCCn1c(Sc2ccc(C#N)c([N+](=O)[O-])c2)nnc1-c1ccc(OC)cc1`, the XC50 worked out at 1.14 µM.

The molecule `COc1ccc(CNCc2ccccc2)cc1-c1ccc(OC)c(S(=O)(=O)NCCN2CCCC2)c1` yielded an XC50 of 0.827 µM.

As to `CCC(C)NS(=O)(=O)c1ccc2nc(Nc3ccc(C)c(Cl)c3)n([C@H](C)C(C)(C)C)c2c1` (some centres undefined), the XC50 was 0.381 µM.

With `CCc1c(CCNCCCCCCNC(C)(C)Cc2ccc3c(c2CC)OCO3)ccc(OC)c1OC`, the XC50 is 0.934 µM.

As to `Cc1ccc(NCC(=O)Nc2ccc(F)c(Cl)c2)cc1S(=O)(=O)N1CCOCC1`, the XC50 is 0.0576 µM.

As to `CN(Cc1cccc(F)c1)C1CCN(c2cc(NC(=O)c3cccc(F)c3)ccn2)CC1`, the XC50 amounted to 1.16 µM.

The molecule `CC(NC(C)c1cccc(Cl)c1)C(=O)Nc1cc(C(F)(F)F)ccc1N1CCOCC1` (centres undefined) returned an XC50 of 1.09 µM.

As for `Cc1ccc(CN2CCCN(Cc3ccc(C(=O)Nc4ccc(Cl)cc4)cc3)CC2)s1`, the XC50 was 1.11 µM.

As to `CN(C)c1cccc2c(S(=O)(=O)Nc3cccc(CCN4CCC(N5CCCCC5)CC4)c3)cccc12`, the XC50 was 0.979 µM.

`CC[C@H](N/C(=N\c1ccc(-c2ccccc2)cc1)Nc1ccc(C#N)cc1O)c1ccccc1` returned an XC50 of 0.759 µM.

Regarding `O=C(/C=C/c1ccc(Cl)c(Cl)c1)NCCCCCN1CCC(NC(=S)Nc2ccc(Cl)c(Cl)c2)CC1`, the XC50 worked out at 0.528 µM.

`Cc1[nH]c(C)c(-c2ccc(OCc3ccccc3C(F)(F)F)nc2)c(=O)c1Br` gave an XC50 of 0.0164 µM.

For `Cc1cnc(C(=O)Nc2ccc3c(c2)CCCN(Cc2c[nH]c4cnccc24)C3)cn1`, the XC50 was determined as 1.23 µM.

Molecule `CCCCNC(c1ccc(Cl)cc1)C(O)c1ccc(Cl)cc1` (centres undefined) registered an XC50 of 0.619 µM.

`N#Cc1ccc(C(=O)Nc2cc(-c3cccc(O)c3)cc3[nH]ncc23)cc1`: the XC50 turned out to be 1.37 µM.

Molecule `CCCCCCCC1=NN2C(=N)C(=Cc3cc(Br)c(OCc4ccc(F)cc4)c(OCC)c3)C(=O)N=C2S1` had an XC50 of 1.05 µM.

`N#Cc1ccc2c(c1)CCN(CCC1CCC(NC(=O)Nc3ccnc4ccccc34)CC1)C2` (centres undefined): the XC50 stood at 0.377 µM.

For the molecule `O=C(Nc1cc(F)cc(F)c1)NC1CCN(CCCCCNC(=O)C2CC2c2ccc(Cl)c(Cl)c2)CC1` (centres undefined), the XC50 stood at 0.75 µM.

With `Oc1cc(-c2cccc(C(F)(F)F)c2)nc(Nc2ccc(Cl)c(Cl)c2)n1`, the XC50 was 0.759 µM.

As to `CS(=O)(=O)Nc1ccc(-c2cnc3[nH]cc(-c4ccc(C(=O)O)cc4)c3c2)cc1`, the XC50 was 0.8 µM.

As to `CCN(CCO)Cc1ccc(-c2ccc(NS(=O)(=O)c3cccc4cccnc34)cc2)cc1`, the XC50 turned out to be 0.985 µM.

With `COc1c(C=NNc2nc(=Nc3ccccc3)[nH]c(=Nc3ccccc3)[nH]2)ccc(Br)c1O`, the XC50 was 0.72 µM.

With `COc1ccc2ncc(F)c(CCN3CC[C@H](NC(=O)c4ccc5c(n4)NC(=O)CS5)[C@H](O)C3)c2n1`, the XC50 is 0.947 µM.

`CC(C)(CNCc1cccc(Oc2cccc(C(F)(F)F)c2)c1)c1nc(-c2ccnc(N)n2)c(-c2ccc(Cl)c(O)c2)[nH]1`: the XC50 was determined as 0.193 µM.

`CSCCCN1CCC(O)(c2ccc3oc(C(=O)Nc4ccc5sc(C)nc5c4)cc3c2)CC1` registered an XC50 of 1.07 µM.

Molecule `O=C(Nc1cccc(CN2CCCN(Cc3ccsc3)CC2)c1)c1cc2ccccc2s1` came in with an XC50 of 0.758 µM.

For the molecule `COc1cccc(NC(=O)c2cc([N+](=O)[O-])ccc2NC(=O)CN2CCc3ccccc3C2)c1`, the XC50 came out at 0.589 µM.

On to `Cc1cc(N2CCCCC2)nc2ccc(NC(=O)c3cccc([N+](=O)[O-])c3)cc12`, for which the XC50 came to 0.378 µM.

With `O=S(=O)(c1c(Cl)cccc1Cl)N1CCCCC(c2ccc(C(F)(F)F)cc2)=N1`, the XC50 is 0.126 µM.

In turn, `COc1ccccc1NC(=O)Nc1cccc(-c2cccc(-c3nc4cc(C(F)(F)F)ccc4[nH]3)c2)c1` yielded an XC50 of 0.12 µM.

Molecule `CN(C)Cc1cccc(-c2cnc(N)c(-c3nc4cc(S(C)(=O)=O)ccc4[nH]3)c2)c1` registered an XC50 of 0.887 µM.

Take `FC(F)(F)c1ccc2[nH]c(-c3ccc(-c4ccc(CN5CCN(c6ccncc6)CC5)cc4)s3)nc2c1`: the XC50 turned out to be 0.153 µM.

In the case of `CN(C(=O)Cc1ccc(Cl)c(Cl)c1)C1CCN(CCCCCNC(=O)/C=C/c2ccc(Cl)c(Cl)c2)CC1`, the XC50 amounted to 0.739 µM.

`CC[C@H]1CN2CC[C@@H]1C[C@H]2[C@H](O)c1cc(N2CCC(C(N)=O)CC2)nc2ccc(OC)cc12` returned an XC50 of 0.773 µM.

As to `COc1cccc(CNC[C@@H](O)[C@H](Cc2ccccc2)NC(=O)c2cc(N3CCCC3=O)c3[nH]cc(C(C)C)c3c2)c1`, the XC50 is 0.529 µM.

`COc1cc(Cc2cnc(N)nc2N)cc(OCCCN2C(=O)c3ccccc3C2=O)c1OC`: the XC50 was 0.985 µM.

Molecule `O=C(NC1CCC(CCN2Cc3cccc(F)c3C2)CC1)c1cccc(-c2cccnc2)c1` (centres undefined) displayed an XC50 of 0.3 µM.

Molecule `O=C(CCC1CCCC1)N(Cc1ccc(-c2ccc(CNCCc3ccccn3)cc2)cc1)CC1CCCCN1` (centres undefined) had an XC50 of 1.15 µM.

For `CC1CN(Cc2cccc(F)c2)CCN1c1ccc(NC(=O)c2cccs2)cc1` (centres undefined), the XC50 turned out to be 0.448 µM.

The molecule `O=C(NCc1ccco1)c1ccc(S(=O)(=O)c2ccc(Cl)cc2)cc1` had an XC50 of 0.448 µM.

`O=C(Nc1ccc(Oc2ccccc2)cc1)N[C@@H](Cc1ccc(O)cc1)C(=O)NC1CCN(Cc2ccc(O)c([N+](=O)[O-])c2)C1` (some centres undefined) yielded an XC50 of 1.51 µM.

In turn, `CCCCOc1cc(OC)c2ccccc2c1CCNCCCCNCCc1c(OCCCC)cc(OC)c2ccccc12` came in with an XC50 of 1.05 µM.

With `CCC[C@@H]([C@@H](CC1CCCCC1)C(=O)N[C@H](C(=O)Nc1nccc(N)n1)C(C)(C)C)N(O)C=O`, the XC50 was 0.528 µM.

For the molecule `c1cncc(-c2cccc(CNc3nccc(Nc4ccc(OCCN5CCOCC5)cc4)n3)c2)c1`, the XC50 amounted to 1.06 µM.

`CN(C)c1ccc(-c2nc3cc(N)ccc3[nH]2)cc1` gave an XC50 of 0.239 µM.

`Cc1sc(C)c(CNCCCNc2cc(=O)c3ccccc3[nH]2)c1Br` displayed an XC50 of 0.878 µM.

Molecule `COc1ccccc1C(C)NCC(=O)Nc1cc(C(F)(F)F)ccc1Cl` (centres undefined) yielded an XC50 of 0.778 µM.

For the molecule `COc1cc(-c2nc(-c3ccccc3)c(-c3ccccc3)[nH]2)cc(OC)c1O`, the XC50 was 0.774 µM.

On to `Cc1ccc(-c2nnc(-c3ccc(C(=O)NC4CCN(Cc5ccc(C#N)cc5)CC4)cc3)o2)cc1Br`, for which the XC50 worked out at 0.852 µM.

Regarding `Cn1cnc2nc(NCCc3ccccc3)nc(NCc3cccc4ccccc34)c21`, the XC50 is 0.327 µM.

`CN(C)CCN(C)Cc1ccc(-c2cccc(-c3nc4ccccc4[nH]3)c2)cc1` gave an XC50 of 0.751 µM.

Consider `Cc1ccc(CNC(=O)c2cc3c(=O)n4cccc(C)c4nc3n(CCN3CCOCC3)c2=N)cc1`, for which the XC50 amounted to 0.854 µM.

The molecule `CN1CCN(Cc2ccc(-c3cc4c(Nc5ccc(OCc6cccc(F)c6)c(Cl)c5)ncnc4s3)[nH]2)CC1` had an XC50 of 0.766 µM.

In turn, `CNC(=O)NC1=NC(C)(C)N(OCc2ccc(Cl)c(Cl)c2)C(NC(=O)NC)=N1` had an XC50 of 0.601 µM.

`CN1CCC(c2ccc(NC(=O)c3ccc(-c4cccc(C(F)(F)F)c4)o3)cc2)CC1` had an XC50 of 1.13 µM.

`COc1ccc(C2C(C(=O)Nc3ccccc3)=C(C)Nc3c(C(=O)Nc4ccccc4)cnn32)cc1` (centres undefined) gave an XC50 of 1.31 µM.

The molecule `Cc1sc(NC(=O)Cc2cccc(C(F)(F)F)c2)nc1-c1cccc(Cl)c1` displayed an XC50 of 0.47 µM.

The values above are taken from ChEMBL document CHEMBL1157539, “Thousands of chemical starting points for antimalarial lead identification” (Nature, 2010).
